Laboratory results taken from ChEMBL document CHEMBL4421722, “Inhibitors of protein prenyltransferases” (2013).

species on record: Rattus norvegicus; assay: Inhibition of rat recombinant geranylgeranyltransferase type I expressed in Escherichia coli assessed as residual enzyme activity for geranylgeranylation of K-Ras4B at 50 uM incubated for 30 mins in presence of [3H]GGPP by scintillation counting assay relative to control

Row | Structure (SMILES) | Activity [%]
1 | Cc1ccc([C@@H]2C[C@@H](SCC(C)C)[C@H](C(=O)O)CN2S(=O)(=O)c2ccccc2C)cc1 | 78.3
2 | Cc1ccc([C@@H]2C[C@@H](SCCC(C)C)[C@H](C(=O)O)CN2S(=O)(=O)c2ccccc2C)cc1 | 75.2
3 | Cc1ccc(S(=O)(=O)N2[C@@H](c3cccc(C)c3)C(C(=O)O)=CC[C@H]2c2ccc3c(c2)OCO3)cc1 | 70.6
4 | CCS[C@@H]1C[C@@H](c2ccc(Cl)cc2)N(S(=O)(=O)c2ccccc2C)C[C@H]1C(=O)O | 63.2
5 | COc1ccc([C@@H]2CC=C(C(=O)O)[C@H](c3cccc(Cl)c3)N2S(=O)(=O)c2ccccc2)cc1 | 56.1
6 | Cc1ccc([C@@H]2C[C@@H](SCCC(C)C)[C@H](C(=O)O)CN2S(C)(=O)=O)cc1 | 93.4
7 | Cc1ccc(S(=O)(=O)N2[C@@H](c3cccc(C)c3)C(C(=O)O)=CC[C@H]2c2cccc(F)c2)cc1 | 60.5
8 | CCCCCCS[C@@H]1C[C@@H](c2cccc(OC)c2)N(S(=O)(=O)c2ccc(C)cc2)C[C@H]1C(=O)O | 80.5
9 | Cc1ccc(S(=O)(=O)N2[C@@H](c3cccc(F)c3)C(C(=O)O)=CC[C@H]2c2ccc(C#N)cc2)cc1 | 88.3
10 | Cc1ccc(S(=O)(=O)N2[C@@H](c3ccc(F)cc3)C(C(=O)O)=CC[C@H]2c2ccc(C#N)cc2)cc1 | 65.1
11 | Cc1ccc(S[C@@H]2C[C@@H](c3ccc(C)cc3)N(S(=O)(=O)c3ccccc3)C[C@H]2C(=O)O)cc1 | 91.3
12 | CCc1ccc([C@@H]2CC=C(C(=O)O)[C@H](c3ccc(C(C)(C)C)cc3)N2S(=O)(=O)c2ccc(C)cc2)cc1 | 79.7
13 | COc1cc([C@@H]2C[C@@H](SCCC(C)C)[C@H](C(=O)O)CN2S(=O)(=O)c2ccc(C)cc2)cc(OC)c1OC | 106
14 | C=CCS[C@@H]1C[C@@H](c2ccc(C)cc2)N(S(C)(=O)=O)C[C@H]1C(=O)O | 91.4
15 | COc1cccc([C@@H]2CC=C(C(=O)O)[C@H](c3cccc(C)c3)N2S(=O)(=O)c2ccc(C)cc2)c1 | 98.6
16 | Cc1ccccc1S(=O)(=O)N1[C@@H](c2ccc(Br)cc2)C(C(=O)O)=CC[C@H]1c1ccc(Cl)cc1 | 86.6
17 | CCS[C@@H]1C[C@@H](c2ccc(OC)c(OC)c2)N(S(=O)(=O)c2ccc(C)cc2)C[C@H]1C(=O)O | 74.4
18 | COC(=O)c1ccccc1S(=O)(=O)N1[C@@H](c2ccc(F)cc2)C(C(=O)O)=CC[C@H]1c1ccc(C)cc1 | 76.9
19 | CCCCS[C@@H]1C[C@@H](c2ccccc2)N(S(=O)(=O)c2ccc(C)cc2)C[C@H]1C(=O)O | 93.4
20 | CCCCS[C@@H]1C[C@@H](c2cccc(OC)c2)N(S(=O)(=O)c2ccc(C)cc2)C[C@H]1C(=O)O | 83.9
21 | COc1cccc([C@@H]2CC=C(C(=O)O)[C@H](c3cccc(F)c3)N2S(=O)(=O)c2ccc(C)cc2)c1 | 82.9

Row | Structure (SMILES) | Activity [%]
22 | Cc1ccc(S(=O)(=O)N2[C@@H](c3cccc(Br)c3)C(C(=O)O)=CC[C@H]2c2cccs2)cc1 | 55
23 | CS(=O)(=O)N1[C@@H](c2ccc(F)cc2)C(C(=O)O)=CC[C@H]1c1ccccc1 | 67.2
24 | CCCCCCS[C@@H]1C[C@@H](c2ccc(CC)cc2)N(S(=O)(=O)c2ccc(C)cc2)C[C@H]1C(=O)O | 70
25 | COc1ccc([C@@H]2C[C@@H](SCc3ccc(C(C)(C)C)cc3)[C@H](C(=O)O)CN2S(=O)(=O)c2ccccc2C)cc1 | 87.2
26 | CCS[C@@H]1C[C@@H](c2ccccc2F)N(S(=O)(=O)c2ccc(C)cc2)C[C@H]1C(=O)O | 89.4
27 | C=CCS[C@@H]1C[C@@H](c2cccc(OC)c2)N(S(=O)(=O)c2ccc(C)cc2)C[C@H]1C(=O)O | 75.1
28 | Cc1ccc(S(=O)(=O)N2[C@@H](c3cccc(C)c3)C(C(=O)O)=CC[C@H]2c2ccccc2F)cc1 | 62.8
29 | CCCCS[C@@H]1C[C@@H](c2ccc(C)cc2)N(S(C)(=O)=O)C[C@H]1C(=O)O | 104
30 | COc1cc([C@@H]2C[C@@H](SC3CCCC3)[C@H](C(=O)O)CN2S(=O)(=O)c2ccc(C)cc2)cc(OC)c1OC | 105
31 | CS(=O)(=O)N1[C@@H](c2ccc(Cl)cc2)C(C(=O)O)=CC[C@H]1c1ccccc1 | 82.1
32 | C=CCS[C@@H]1C[C@@H](c2ccccc2F)N(S(=O)(=O)c2ccc(C)cc2)C[C@H]1C(=O)O | 53.1
33 | COc1ccc([C@@H]2CC=C(C(=O)O)[C@H](c3cccc(C)c3)N2S(=O)(=O)c2ccc(C)cc2)cc1OC | 76
34 | CCCS[C@@H]1C[C@@H](c2ccc(OCC)cc2)N(S(=O)(=O)c2ccc(C)cc2)C[C@H]1C(=O)O | 84.9
35 | COc1ccc([C@@H]2C[C@@H](SCCc3ccccc3)[C@H](C(=O)O)CN2S(=O)(=O)c2ccc(C)cc2)cc1OC | 44.1
36 | COc1ccc([C@@H]2CC=C(C(=O)O)[C@H](c3cccc(F)c3)N2S(=O)(=O)c2ccccc2)cc1 | 91.8
37 | COc1ccc([C@@H]2CC=C(C(=O)O)[C@H](c3ccc(C)cc3)N2S(=O)(=O)c2ccccc2)cc1 | 88.2
38 | CCCCCS[C@@H]1C[C@@H](c2ccc(Cl)cc2)N(S(=O)(=O)c2ccccc2C)C[C@H]1C(=O)O | 57.9
39 | COC(=O)c1ccccc1S(=O)(=O)N1[C@@H](c2ccc(C)cc2)C(C(=O)O)=CC[C@H]1c1ccc(C)cc1 | 89.4
40 | CCCCCS[C@@H]1C[C@@H](c2ccc(OCC)cc2)N(S(=O)(=O)c2ccc(C)cc2)C[C@H]1C(=O)O | 89.1
41 | CCS[C@@H]1C[C@@H](c2ccccc2)N(S(=O)(=O)c2ccc(C)cc2)C[C@H]1C(=O)O | 94.8
42 | CCCS[C@@H]1C[C@@H](c2ccc(OC)c(OC)c2)N(S(=O)(=O)c2ccc(C)cc2)C[C@H]1C(=O)O | 91.4

The next lines start with the values.

Row | Activity [%] | Structure (SMILES)
43 | 74.3 | C=CCS[C@@H]1C[C@@H](c2ccc(C)cc2)N(S(=O)(=O)c2ccc(Cl)cc2)C[C@H]1C(=O)O
44 | 68.5 | CCc1ccc([C@@H]2C[C@@H](SCC(C)C)[C@H](C(=O)O)CN2S(=O)(=O)c2ccc(C)cc2)cc1
45 | 93.2 | Cc1ccc([C@@H]2C[C@@H](SC3CCCC3)[C@H](C(=O)O)CN2S(=O)(=O)c2ccc(Cl)cc2)cc1
46 | 76.1 | Cc1ccc(S[C@@H]2C[C@@H](c3ccc(Cl)cc3)N(S(=O)(=O)c3ccc(C)cc3)C[C@H]2C(=O)O)cc1
47 | 112 | CC(=O)C1=CC[C@@H](c2ccc(C)cc2)N(S(=O)(=O)c2ccc(Cl)cc2)C1
48 | 44.9 | COc1cc([C@@H]2C[C@@H](SCc3ccc(Cl)cc3)[C@H](C(=O)O)CN2S(=O)(=O)c2ccc(C)cc2)cc(OC)c1OC
49 | 80.8 | COc1ccc(S[C@@H]2C[C@@H](c3ccc(OC)cc3)N(S(=O)(=O)c3ccc(Cl)cc3)C[C@H]2C(=O)O)cc1
50 | 60.5 | CCc1ccc([C@@H]2CC=C(C(=O)O)[C@H](c3cccc(C)c3)N2S(=O)(=O)c2ccc(C)cc2)cc1
51 | 72.8 | CCCS[C@@H]1C[C@@H](c2ccc(OC)cc2)N(S(=O)(=O)c2ccc(Cl)cc2)C[C@H]1C(=O)O
52 | 53 | Cc1ccc([C@H]2C(C(=O)O)=CC[C@@H](c3ccc(C)cc3)N2S(=O)(=O)c2ccc(Cl)cc2)cc1
53 | 91.9 | CC(=O)C1=CC[C@@H](c2ccc(Cl)cc2)N(S(=O)(=O)c2ccccc2C)C1
54 | 87 | CCc1ccc([C@@H]2CC=C(C(=O)O)[C@H](c3ccc(C)cc3)N2S(=O)(=O)c2ccc(C)cc2)cc1
55 | 83.2 | CCCS[C@@H]1C[C@@H](c2ccc(C)cc2)N(S(=O)(=O)c2ccc(Cl)cc2)C[C@H]1C(=O)O
56 | 57.5 | Cc1ccc(S(=O)(=O)N2[C@@H](c3ccc(Br)cc3)C(C(=O)O)=CC[C@H]2c2ccc(Cl)cc2)cc1
57 | 68.3 | CCCCCCS[C@@H]1C[C@@H](c2ccc(OC)cc2)N(S(=O)(=O)c2ccc(Cl)cc2)C[C@H]1C(=O)O
58 | 52.8 | Cc1ccc(S(=O)(=O)N2[C@@H](c3cccc(F)c3)C(C(=O)O)=CC[C@H]2c2cccc(Cl)c2)cc1
59 | 105 | Cc1ccc([C@@H]2C[C@@H](Sc3ccc(Cl)cc3)[C@H](C(=O)O)CN2S(C)(=O)=O)cc1
60 | 73.1 | Cc1ccc(S(=O)(=O)N2[C@@H](c3ccc(Cl)cc3)C(C(=O)O)=CC[C@H]2c2ccc(C#N)cc2)cc1

Row | Activity [%] | Structure (SMILES)
61 | 57.6 | Cc1ccc(S(=O)(=O)N2[C@@H](c3cccc(Cl)c3)C(C(=O)O)=CC[C@H]2c2cccc(C)c2)cc1
62 | 66.1 | Cc1ccc([C@H]2C(C(=O)O)=CC[C@@H](c3cccc(Cl)c3)N2S(=O)(=O)c2ccc(C)cc2)cc1
63 | 73.9 | Cc1ccc(S(=O)(=O)N2[C@@H](c3cccc(Cl)c3)C(C(=O)O)=CC[C@H]2c2ccc3c(c2)OCO3)cc1
64 | 93.1 | Cc1ccc([C@@H]2C[C@@H](SCc3ccccc3)[C@H](C(=O)O)CN2S(=O)(=O)c2ccc(C)cc2)cc1
65 | 54.8 | Cc1ccc([C@H]2C(C(=O)O)=CC[C@@H](c3ccc(F)cc3)N2S(=O)(=O)c2ccc(C)cc2)cc1
66 | 72.5 | COc1ccc([C@@H]2CC=C(C(=O)O)[C@H](c3ccc(C)cc3)N2S(=O)(=O)c2ccc(Cl)cc2)cc1
67 | 40.3 | Cc1ccc([C@@H]2C[C@@H](SCc3ccccc3)[C@H](C(=O)O)CN2S(=O)(=O)c2ccc(Cl)cc2)cc1
68 | 67.2 | COc1ccc([C@@H]2CC=C(C(=O)O)[C@H](c3ccc(F)cc3)N2S(=O)(=O)c2ccc(Cl)cc2)cc1
69 | 53.2 | COc1ccc([C@@H]2CC=C(C(=O)O)[C@H](c3cccc(Cl)c3)N2S(=O)(=O)c2ccc(Cl)cc2)cc1
70 | 63.1 | COc1cccc([C@@H]2CC=C(C(=O)O)[C@H](c3ccc(C)cc3)N2S(=O)(=O)c2ccc(C)cc2)c1
71 | 66.7 | Cc1ccc(S(=O)(=O)N2[C@@H](c3cccc(C)c3)C(C(=O)O)=CC[C@H]2c2ccc(C#N)cc2)cc1
72 | 99.7 | COc1ccc([C@@H]2C=CCCN2S(=O)(=O)c2ccc(C)cc2)cc1
73 | 50.9 | Cc1ccc([C@@H]2C[C@@H](SCc3ccc(Cl)cc3)[C@H](C(=O)O)CN2S(=O)(=O)c2ccc(C)cc2)cc1
74 | 83.2 | COc1ccc([C@@H]2C[C@@H](Sc3ccc(C)cc3)[C@H](C(=O)O)CN2S(=O)(=O)c2ccc(Cl)cc2)cc1
75 | 72.8 | Cc1ccc(S(=O)(=O)N2[C@@H](c3ccc(Br)cc3)C(C(=O)O)=CC[C@H]2c2ccccc2F)cc1
76 | 62 | Cc1ccc([C@@H]2C[C@@H](SCc3ccc(C(C)(C)C)cc3)[C@H](C(=O)O)CN2S(=O)(=O)c2ccc(Cl)cc2)cc1
77 | 74.6 | Cc1ccc(S(=O)(=O)N2[C@@H](c3ccc(Br)cc3)C(C(=O)O)=CC[C@H]2c2ccccc2)cc1
